Like-named read-outs stand apart in the source and are kept apart here.
Legend:
[1] = system: Flu A H5N1 (High Path); assay: microbe, parasite or virus in culture; type: cell-based; settings: Influenza A virus, H5N1, MDCK, MDCK cells
[2] = ICR (CD-1), mouse, in vivo
[3] = system: RVFV; assay: microbe, parasite or virus in culture; type: cell-based; settings: Rift Valley fever virus, Vero
[4] = mouse, in vivo
[5] = system: EEEV; assay: microbe, parasite or virus in culture; type: cell-based; settings: Eastern equine encephalitis virus
[6] = female, DBA-1J, mouse, in vivo
[7] = system: Flu A H3N2; assay: microbe, parasite or virus in culture; type: cell-based, influenza A virus
[8] = system: Lassa fever virus; assay: organism not typed; type: cell-based; settings: Vero

## O=c1nc(NO)ccn1C1OC(CO)C(O)C1O (centres unmarked) [EIDD-1931, 1-(3,4-dihydroxy-5-(hydroxymethyl)tetrahydrofuran-2-yl)-4-(hydroxyamino)pyrimidin-2-one]
[1]
  EC50: > 88 µM
[2]; 15 mg/kg
  t1/2: 2.9 h
[2]; 225 mg/kg
  t1/2: 4.2 h
[2]; 750 mg/kg
  AUCinf: 228.9 µM·h
  Brain Cmax: 18.8 nmol/g
  t1/2: 5.2 h
[3]
  EC90: 1 µM
[3]; RVFV, Vero cells
  EC50: 1.68 µM
[4]
  body weight: weight loss was observed
[5]; Vero 76
  EC90: 1.68 µM
[5]; Vero, EEE virus, Vero cell cytopathic effect (CPE) model
  EC50: 1.08 µM
[6]
  Bioavailability (versus i.p. delivery): 39-46%
[6]; 30 mg/kg
  Bioavailability (versus i.p. delivery): 65%
[6]; iv
  plasma T1/2: 2.2 h
[7]
  EC50: 0.88 µM
[7]; Influenza A virus, H3N2, MDCK
  EC50: 0.96 µM
[8]
  EC50: 4.04 µM
